# Laboratory results: patent US10562902B2, “IRAK4 inhibitor and use thereof” (BEIJING HANMI PHARMACEUTICAL CO., LTD., priority 2015, dated 2020)
# Biological target: IRAK4 kinase (Homo sapiens (Human), UniProt Q9NWZ3)
# Experiment: IRAK4 kinase activity inhibition assay
# Format: biochemical
# Details: ADP-Glo kinase assay, 10 μM ATP, MBP substrate
# Protocol: IRAK4 kinase (purchased from Life Technologies, Cat. No.: PR5612U) was diluted to 2 folds of the final concentration (the final concentration is […]) with reaction buffer (40 mM Tris-HC1, pH 7.5; 20 mM MgCl2; 0.1 mg/mL BSA; 1 mM DTT), and added to a 384-well plate at 5 μL/well. The test drugs were 10-fold serial diluted from 10 μM to set six concentration points and added to the test wells of the 384-well plate at 2.5 μL/well. After incubation for 10 min at 25° C., 10 μM of ATP and 0.1 μg/μL of an enzyme reaction substrate, myelin basic protein MBP (purchased from Signal Chem, Cat. No.: M42-51N) were added at 2.5 μL/well, and reacted at 25° C. for 60 minutes. After the reaction was completed, the kinase activity assay was performed using the ADP-Glo™ kinase assay kit (purchased from Promega, Cat. No.: V9102) according to the manufacture's instruction, i.e., 10 μL of ADP-Glo reaction reagent was first added and reacted at 25° C. for 40 minutes, 10 μL of the reaction mixture was taken and mixed with 10 μL of ADP-Glo detection reagent, and reacted at 25° C. for 30 minutes. The kinase activity was then detected, and the IC50 values of the test drugs were calculated.
# Chain of IRAK4 kinase (Q9NWZ3 whole entry): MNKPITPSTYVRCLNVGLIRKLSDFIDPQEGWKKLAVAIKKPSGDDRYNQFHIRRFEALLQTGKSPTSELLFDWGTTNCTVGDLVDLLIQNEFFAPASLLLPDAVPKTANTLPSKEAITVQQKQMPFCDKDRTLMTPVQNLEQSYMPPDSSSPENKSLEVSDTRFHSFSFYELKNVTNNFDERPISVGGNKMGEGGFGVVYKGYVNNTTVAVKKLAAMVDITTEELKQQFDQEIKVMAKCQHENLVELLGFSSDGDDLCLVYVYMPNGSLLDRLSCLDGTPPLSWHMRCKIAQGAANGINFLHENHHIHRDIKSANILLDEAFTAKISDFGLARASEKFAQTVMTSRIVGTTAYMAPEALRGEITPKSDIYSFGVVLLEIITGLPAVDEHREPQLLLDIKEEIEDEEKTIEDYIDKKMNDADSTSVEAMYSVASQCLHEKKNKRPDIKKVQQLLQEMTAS
row,IC50 [nM],Structure (SMILES)
1,≤ 100,Cc1cc(Nc2nc(O[C@H]3CCOC3)c3c(ccn3-c3cnn(C)c3)n2)sn1 [Example 64]
2,≤ 100,CCNC(=O)c1csc(Nc2nc(O[C@H]3CCOC3)c3c(ccn3-c3cnn(C)c3)n2)c1 [Example 134]
3,≤ 100,Cc1cc(Nc2nc(OC3CCOCC3)c3c(ccn3-c3cnn(C)c3)n2)sn1 [Example 74]
4,≤ 100,CNC(=O)c1csc(Nc2nc(O[C@H]3CCOC3)c3c(ccn3-c3cnn(C)c3)n2)c1 [Example 133]
5,100 to 1000,Cc1cc(Nc2nc(NC3CCC(=O)CC3)c3c(ccn3-c3cnn(C)c3)n2)sn1 [Example 23]
6,100 to 1000,Cc1cc(Nc2nc(OCc3ccccn3)c3c(ccn3-c3cnn(C)c3)n2)sn1 [Example 59]
7,100 to 1000,Cc1cc(Nc2nc(OC3CCNCC3)c3c(ccn3-c3cnn(C)c3)n2)sn1 [Example 71]
8,≤ 100,Cc1cc(Nc2nc(N[C@H]3CC[C@H](O)CC3)c3c(ccn3-c3cccnc3)n2)sn1 [Example 38]
9,100 to 1000,CNC(=O)c1ccc(Nc2nc(O[C@H]3CCOC3)c3c(ccn3-c3cnn(C)c3)n2)s1 [Example 164]
10,100 to 1000,Cc1cc(Nc2nc(OC3CCN(C)CC3)c3c(ccn3-c3cnn(C)c3)n2)sn1 [Example 72]
11,100 to 1000,Cn1cc(-n2ccc3nc(Nc4cnn(C5CCCCC5)c4)nc(O[C@H]4CCOC4)c32)cn1 [Example 109]
12,≤ 100,CN1Cc2cc(Nc3nc(O[C@H]4CCOC4)c4c(ccn4-c4cnn(C)c4)n3)ccc2C1=O [Example 121]
13,≤ 100,Cn1cc(-n2ccc3nc(Nc4csc(C(=O)NCCF)c4)nc(O[C@H]4CCOC4)c32)cn1 [Example 161]
14,100 to 1000,COC1CCC(Oc2nc(Nc3cc(C)ns3)nc3ccn(-c4cnn(C)c4)c23)CC1 (centres unmarked) [Example 68]
15,100 to 1000,CNC(=O)c1ccc(Nc2nc(Nc3cc(C)ns3)nc3ccn(-c4cnn(C)c4)c23)cc1 [Example 31]
16,100 to 1000,COc1cc(-n2ccc3nc(Nc4cc(C)ns4)nc(OC4CCOCC4)c32)ccn1 [Example 101]

row,IC50 [nM],Structure (SMILES)
1,100 to 1000,Cc1cc(Nc2nc(NC3CCOCC3)c3c(ccn3-c3ccncc3)n2)sn1 [Example 40]
2,≤ 100,Cn1cc(-n2ccc3nc(Nc4cc(C(=O)NCC(F)(F)F)cs4)nc(O[C@H]4CCOC4)c32)cn1 [Example 138]
3,≤ 100,Cc1cc(Nc2nc(N[C@H]3CC[C@@H](O)C3)c3c(ccn3-c3cnn(C)c3)n2)sn1 [Example 18]
4,≤ 100,"Cc1cc(Nc2nc(OC(C)C)c3c(ccn3-c3cnn(C)c3)n2)sn1 [Example 54, [4-isopropoxy-5-(1-methyl-1H-pyrazol-4-yl)-5H-pyrrolo[3,2-d]pyrimidin-2-yl]-(3-methylisothiazol-5-yl)amine]"
5,≤ 100,CCNC(=O)c1cc(Nc2nc(O[C@H]3CCOC3)c3c(ccn3-c3cnn(C)c3)n2)cs1 [Example 160]
6,100 to 1000,CNC(=O)CCNc1nc(Nc2cc(C)ns2)nc2ccn(-c3cnn(C)c3)c12 [Example 6]
7,100 to 1000,Cn1cc(-n2ccc3nc(Nc4ccc5c(c4)C(=O)NC5)nc(O[C@H]4CCOC4)c32)cn1 [Example 122]
8,100 to 1000,Cc1cc(Nc2nc(O[C@H]3CCOC3)c3c(ccn3-c3cnn(C)c3)n2)on1 [Example 83]
9,100 to 1000,COCCn1cc(-n2ccc3nc(Nc4cc(C)ns4)nc(OC4CCOCC4)c32)cn1 [Example 91]
10,100 to 1000,"Cc1cc(Nc2nc(N(C)C3CCOCC3)c3c(ccn3-c3cnn(C)c3)n2)sn1 [Example 53, N^4-methyl-N^2-(3-methylisothiazol-5-yl)-5-(1-methyl-1H-pyrazol-4-yl)-N^4-(tetrahydropyran-4-yl)-5H-pyrrolo[3,2-d]pyrimidine-2,4-diamine]"
11,1000 to 10000,Cc1cc(Nc2nc(NC(C)C)c3c(ccn3-c3ccc(N)nc3)n2)sn1 [Example 39]
12,100 to 1000,Cc1cc(Nc2nc(N[C@H]3CC[C@](C)(O)CC3)c3c(ccn3-c3cnn(C)c3)n2)sn1 [Example 24]
13,100 to 1000,Cn1cc(-n2ccc3nc(Nc4ccc5ncsc5c4)nc(O[C@H]4CCOC4)c32)cn1 [Example 125]
14,100 to 1000,CC(=O)N[C@H]1CC[C@H](Nc2nc(Nc3cc(C)ns3)nc3ccn(-c4cnn(C)c4)c23)CC1 [Example 27]
15,≤ 100,CCNC(=O)c1csc(Nc2nc(NC3CCOCC3)c3c(ccn3-c3cnn(C)c3)n2)c1 [Example 49]

# System: TMD-8 cells
# Experiment: TMD-8 cell growth inhibition assay
# Format: cell-based
# Details: Homo sapiens, TMD8, 96 hours, CCK-8
# Protocol: The compound of Example 64 and the compound of Example 74 of the invention were tested in TMD-8 cell growth inhibition assay. TMD-8 cells (available from Korea Hanmi Research Center) were cultured in RMPI-1640 medium (purchased from Gibco, Cat. No.: 22440) containing 10% fetal bovine serum (purchased from Gibco, Cat. No.: 10099-141). The TMD-8 cells in logarithmic growth phase were seeded in a 96-well plate at 20,000 cells/well/100 μL, and RMPI-1640 medium (100 μL) was added into blank control wells. The test samples were diluted with RMPI-1640 medium to 2 folds of the final concentration (10-fold dilutions starting from 10 μM, setting 6 drug concentrations, and testing in replicate wells at each concentration). The diluted test samples were added to test wells seeded with cells at 100 μL/well, and RMPI-1640 medium (100 μL) was separately added to the positive control and the blank control wells. The 96-well plate was placed in the incubator and reacted at 37° C., 5% CO2 for 96 hours. After the reaction was completed, the 96-well plate was taken from the incubator and to each well was added CCK-8 (100 μL) (purchased from DOJINDO, Cat. No.: CK04-11). Then the 96-well plate was put back to the incubator and incubated for another 2 hours.
row,Structure (SMILES),IC50 [nM]
1,Cc1cc(Nc2nc(O[C@H]3CCOC3)c3c(ccn3-c3cnn(C)c3)n2)sn1 [Example 64],184
2,Cc1cc(Nc2nc(OC3CCOCC3)c3c(ccn3-c3cnn(C)c3)n2)sn1 [Example 74],479

# System: LPS-induced TNF-α secretion in THP-1 cells
# Experiment: LPS-induced TNF-α secretion assay in THP-1 cells
# Format: cell-based
# Details: Homo sapiens, 24 hours, TNF-α ELISA
# Protocol: The compound of Example 133 and the compound of Example 134 of the invention were tested in LPS-induced TNF-α secretion assay in THP-1 cells. Human THP-1 cells (purchased from ATCC, Cat. No.: TIB-202) were cultured in RPMI-1640 medium (purchased from Gibco, Cat. No.: 22440) containing 10% fetal bovine serum (purchased from Gibco, Cat. No.: 10099-141) and 0.05 mM of 2-mercaptoethanol (purchased from Gibco, Cat. No.: 21985). The THP-1 cells in logarithmic growth phase were seeded in a 96-well plate at 2×10^5 cells/well/100 μL. The test samples were diluted with RMPI-1640 medium to 4 folds of the final concentration (5-fold dilutions starting from 10 μM, setting 6 drug concentrations, and testing in replicate wells at each concentration). The diluted test samples were added to the test wells seeded with cells at 50 μL/well, and RMPI-1640 medium (50 μL) was separately added to positive control and negative control wells. The 96-well plate was placed in the incubator at 37° C., 5% CO2 and pre-incubated for 2 hours. […] After incubation in the incubator at 37° C., 5% CO2 for 24 hours, the cell culture supernatant was taken and determined for the content of TNF-α in the supernatant using a human TNF-α ELISA kit (purchased from DKW, Cat. No.: 12-1720-096).
row,IC50 [nM],Structure (SMILES)
1,311,CCNC(=O)c1csc(Nc2nc(O[C@H]3CCOC3)c3c(ccn3-c3cnn(C)c3)n2)c1 [Example 134]
2,161,CNC(=O)c1csc(Nc2nc(O[C@H]3CCOC3)c3c(ccn3-c3cnn(C)c3)n2)c1 [Example 133]
